SMILES strings stand for the structures. In brackets after ≈: the same amount, converted by molar mass. Where two headings read alike, the source gives them in different places.

In general, CC50 refers to the concentration that lowers cell viability or growth by half.

Series [1] relates to all tested bacterial strains, including non-staphylococci strains. The series is described as follows: Broth microdilution MIC, summary over all strains tested. (In broth dilution the organism is exposed to a series of concentrations in liquid medium.)
The test system of series [2] is Staphylococcus aureus CMRSA-10. The series is described as follows: Broth microdilution MIC. The series is classed as cell-based. From the text:
(§1) Reference strains for this study (S. aureus ATCC 29213, ATCC 29740 [bovine mastitis strain Newbould], S. epidermidis ATCC 12228, E. coli ATCC 35695, E. faecalis ATCC 29212) were obtained from the American Type Culture Collection (ATCC, Rockville, MD). S. aureus strains CMRSA-10 and CMRSA-2 were obtained from the Laboratoire de santé publique du Québec (LSPQ, Sainte-Anne-de-Bellevue, QC, Canada) and are Canadian CA-MRSA USA-300 and HA-MRSA USA-100 clones, respectively. The strain E. coli imp4213 (lptD), used as a control in MIC assays, is a derivative of E. coli ATCC 35695 (E. coli MC4100) with an increased membrane permeability. […] Other MRSA strains used in this study are clinical isolates of human origin obtained from the microbiology laboratory of the Centre Hospitalier Universitaire de Sherbrooke (CHUS, Sherbrooke, QC, Canada). Bovine mastitis strains (S. aureus, S. chromogenes, S. haemolyticus, S. hominis, S. simulans) were obtained from the Canadian Bovine Mastitis and Milk Quality Research Network (CBRQMN, St-Hyacinthe, QC, Canada). Among these strains, S. aureus 2117 is a high producer of biofilm and was used in the biofilm-eradication assay. S. epidermidis isolates were provided by Centre de Recherche en Infectiologie (CRI) de Québec (Québec, QC, Canada).

Series [3] deals with Staphylococcus aureus CMRSA-2. As to the kind of experiment: Broth microdilution MIC. It counts as cell-based.
From the text: as §1

Series [4] deals with Bacillus subtilis xpt-lacZ. As to the kind of experiment: Broth microdilution MIC. It counts as cell-based. Particulars: B. subtilis xpt-lacZ, read-out: Broth Microdilution MIC.
On the set-up of series [5]: method as in PMID 20421948. As to conditions: presence of water and oxygen; cited from earlier work.
In series [6] the test system is S. aureus guanine riboswitch. On the set-up: method as in PMID 20421948. As to conditions: cited from earlier work.
Another series has as its system S. aureus. On the set-up: method as in PMID 20421948. Particulars: compared with PC1; cited from earlier work.
Series [7] deals with Escherichia coli ΔlptD4213. As to the kind of experiment: microbe, parasite or virus in culture. The series is classed as cell-based. Particulars: read-out: Broth Microdilution MIC.
From the text: as §1

For series [8], the system named is guanine riboswitch-lacZ fusion construct (xpt-lacZ). As to the kind of experiment: Riboswitch regulation assay (lacZ-gene reporter). It counts as cell-based, B. subtilis. From the text:
The novel pyrimidine compounds, especially PC206, display specificity and potency against some staphylococci but not the other bacterial genus (Table 1 and Table 2). Because they are structurally derived from PC1 and PC2, these novel antibiotic candidates are expected to have the same mode of action. […] To verify this hypothesis, a strain of B. subtilis with a guanine riboswitch-lacZ fusion construct (named xpt-lacZ) integrated in its chromosome was exposed to these new antimicrobials. […] Therefore, it is an adequate reporter species. The metabolization of substrate ONPG into colored ONP was normalized by the bacterial suspension absorbance at 600 nm (Miller units) and relativized to the untreated condition.
β-galactosidase gene expression in the presence of the new pyrimidine analogs was studied, using an xpt-lacZ transcriptional fusion construct integrated in the genome of B. subtilis as previously described. Briefly, cultures were grown for 5 h at 35 °C in CAMHB, from an initial optical density of 0.05 at 600 nm (OD600), and then diluted 1:20 and in the presence of different concentrations of the compounds tested. Cultures were centrifuged for 10 min at 13,100 rpm, the supernatant was discarded, and pellets were suspended in a Z-buffer (NaH2PO4 40 mM, Na2HPO4 60 mM, MgSO4 1 mM, KCl 10 mM). Cultures OD600 were measured, and bacteria were then lysed with lysozyme (1 mg/mL) and β-mercaptoethanol 50 mM for 30 min. Lysates were centrifuged for 10 min at 13,100 rpm, and supernatants were incubated for 5 min at 30 °C with the substrate orthonitrophenyl-β-galactoside (ONPG; Sigma Aldrich). Reactions were stopped with Na2CO3 1M, supernatants OD420 were measured, and Miller units were calculated. A decrease in β-galactosidase activity indicated binding of the test compound to the riboswitch. Guanine and oxacillin were used as […] controls, respectively. The formula to measure Miller units is as follows: Millerunits=1000×OD420/t·v·OD600
Here, t represents the time of incubation with ONPG, and v represents the volume of the reaction.

Series [9] can be described thus: MTT assay. The series is classed as cell-based. Particulars: human, HepG2 cells. Background: Tetrazolium dyes change colour on reduction, which living cells bring about.
Series [10] can be described thus: MTT assay. It counts as cell-based. Particulars: bovine, MAC-T cells, 24 h.
Series [11] can be described thus: LDH release assay. It counts as cell-based. As to conditions: human, HepG2 cells. (Release of lactate dehydrogenase indicates damage to the cell membrane.)
The nature of series [12]: LDH release assay. Particulars: bovine, MAC-T cells, 24 h. It counts as cell-based.
The test system of series [13] is Staphylococcus aureus ATCC 29213. The series is described as follows: Broth microdilution MIC. Particulars: ATCC29213, read-out: Broth Microdilution MIC.
Series [14] has as its system Staphylococcus epidermidis ATCC 12228. As to the kind of experiment: Broth microdilution MIC. As to conditions: ATCC12228, read-out: Broth Microdilution MIC.
Series [15] concerns Enterococcus faecalis ATCC 29212. The series is described as follows: Broth microdilution MIC. Particulars: ATCC29212, read-out: Broth Microdilution MIC.
Series [16] has as its system Escherichia coli ATCC 35695. As to the kind of experiment: Broth microdilution MIC. Particulars: ATCC35695, read-out: Broth Microdilution MIC.
Series [17] deals with HepG2 and MAC-T cells versus S. aureus Newbould. As to the kind of experiment: Selectivity ratios over both assays and both cell lines. It counts as cell-based. Particulars: over MTT and LDH assays. The procedure:
All CC50 values are reported in Table 3, and plots are provided in the Supplementary Information (Supplementary Figure S2). PC371 had no effect on cell viability even at the highest concentrations tested (CC50 > 600 μM) in both the MTT and the LDH assay and for the two cell lines tested. For the three other compounds, in both cell lines and both assays, a correlation was observed between the effect on cell viability and the length of their aliphatic chain. CC50 of PC372 (5 carbons) was higher than that of PC206 (6 carbons), and both were higher than that of PC383 (10 carbons). Indeed, for the MAC-T cells in the MTT assay, the values were >600 μM (PC372), 317 μM (PC206), and 13.5 μM (PC383). Again, for the MAC-T cell line, the values for the LDH assay were >600 μM (PC372 and PC206) and 23.6 μM (PC383). Similar results were obtained with the HepG2 cells. […] Overall, the MAC-T cells tolerated better exposure to the compounds than the HepG2 cells. To assess the selectivity of the PC2 analogs towards S. aureus, selectivity ratios were calculated. These ratios were obtained by dividing the cytotoxicity CC50 values of an analog by its MIC against S. aureus Newbould. It was not possible to calculate the selectivity ratio for PC371 as its CC50 and MIC values exceeded the maximum values tested.

In series [18] the test system is all reference staphylococci strains tested, including MRSA. As to the kind of experiment: Broth microdilution MIC, summary over reference staphylococci. As to conditions: Staphylococcus aureus, read-out: MIC ranging, against all reference staphylococci strains tested.
[19] abbreviates: read-out: MIC against all tested bacterial strains.
The mark [20] stands for this setting: CMRSA10, S. aureus CMRSA-10, read-out: Broth Microdilution MIC.
[21] abbreviates: CMRSA2, S. aureus CMRSA-2, read-out: Broth Microdilution MIC.

With `O[C@@H](CS)[C@@H](O)CS` (racemic) [DTT, dithiothreitol, reference compound], in series [1] (read-out: MIC of DTT), the MIC was above 75 mM.
Turning to `Nc1nc(N)c(N)c(O)n1` [PC1, 2,5,6-triaminopyrimidine-4-one, reference compound], the MIC in series [2] (CMRSA10, S. aureus CMRSA-10, in the presence of 1.5 mM DTT, read-out: Broth Microdilution MIC) was 2 µg/mL; in [3] (CMRSA2, S. aureus CMRSA-2, in the presence of 1.5 mM DTT, read-out: Broth Microdilution MIC) it was 1 µg/mL; in [4] (in the presence of 1.5 mM DTT), above 128 µg/mL. The Chemical stability result in series [5] is given as “chemically unstable”. Also, the “Binding to the guanine riboswitch” value in [6] was “binding the guanine riboswitch of S. aureus”.
In the case of `Nc1cc(O)nc(N)n1` [PC2], the Chemical stability entry in series [5] is listed as “more chemically stable”. For the same compound, the “Binding to the guanine riboswitch” value in [6] is recorded as “bind the riboswitch ex vivo”. In addition, the “Antimicrobial activity against S. aureus” value in the series with S. aureus is “much lower antimicrobial activity”.
With `CCCNc1cc(N)nc(N)n1` [PC371], the MIC in series [2] (CMRSA10, read-out: Broth Microdilution MIC) was above 128 µg/mL; in [3] (CMRSA2, read-out: Broth Microdilution MIC), above 128 µg/mL; in [7] it was above 128 µg/mL; in series [4], above 128 µg/mL; in series [13] it was above 128 µg/mL; in series [14], above 128 µg/mL. In addition, the MIC in series [15], in series [16] and in series [1] (setting [19]) was above 128 µg/mL in each case. Further, the “Effect on Miller units” value in series [8] (512 and 1024 μg/mL, one experiment) is listed as “did not have any effect on the reporter gene expression”. Besides, the CC50 at 24 h in the series “MTT assay [9]”, in “MTT assay [10]”, in “LDH release assay [11]” and in “LDH release assay [12]” was above 600 µM in each case.
Turning to `CCCCCNc1cc(N)nc(N)n1` [PC372], the MIC is 8 µg/mL (≈ 41 µM) in series [2] (setting [20]); 16 µg/mL (≈ 81.9 µM) in series [3] (setting [21]); above 128 µg/mL in series [7]; 128 µg/mL (≈ 656 µM) in [4]; 16 µg/mL (≈ 81.9 µM) in series [13]; 8 µg/mL (≈ 41 µM) in series [14]. The MIC in series [15] is above 128 µg/mL; in series [16], above 128 µg/mL; in [18], 8 to 16 µg/mL (≈ 41 to 81.9 µM). In addition, in [8] (64 µg/mL), the “Miller units remaining, relative to the untreated condition” value is recorded as 50%. In addition, the 50% cytotoxic concentration (CC50) at 24 h is 341 ± 32 µM in “MTT assay [9]”, above 600 µM in “MTT assay [10]”, 394 ± 15 µM in “LDH release assay [11]” and above 600 µM in the series “LDH release assay [12]”. For the same compound, the “Selectivity ratio (CC50/MIC against S. aureus Newbould), overall” value in series [17] is given as “above 3.9”.
For `CCCCCCCCCCNc1cc(N)nc(N)n1` [PC383], the MIC in series [2] (setting [20]) worked out at 4 µg/mL (≈ 15.1 µM); in [3] (setting [21]), 4 µg/mL (≈ 15.1 µM); in series [7] it was 8 µg/mL (≈ 30.1 µM); in [4], 4 µg/mL (≈ 15.1 µM); in series [13], 4 µg/mL (≈ 15.1 µM); in series [14] it was 4 µg/mL (≈ 15.1 µM). Also, the MIC is 4 µg/mL (≈ 15.1 µM) in series [15], 16 µg/mL (≈ 60.3 µM) in series [16] and 4 to 16 µg/mL in series [1] (setting [19]). For the same compound, the “Effect on Miller units” value in series [8] (highest evaluated dose 2 µg/mL) is recorded as “did not impact Miller units’ expression”. The cytotoxic concentration (CC50) at 24 h turned out to be 11.7 ± 5.8 µM in “MTT assay [9]”, 13.5 ± 1.5 µM in the series “MTT assay [10]”, 6.6 ± 0.7 µM in “LDH release assay [11]” and 23.6 ± 8.4 µM in “LDH release assay [12]”. For the same compound, in [17], the “Selectivity ratio (CC50/MIC against S. aureus Newbould), overall” value is around 1.

The values are drawn from paper PMC10451377, “Rationally Designed Pyrimidine Compounds: Promising Novel Antibiotics for the Treatment of Staphylococcus aureus-Associated Bovine Mastitis” (Antibiotics, 2023).
